The compounds below were run on MCF7 (assay: Cytotoxicity against human MCF7 cells after 72 hrs by MTT assay). Settings: MCF7, 72 h.
Assay type: functional, cell-based

`COc1cc(/C=C/C(=O)O[C@H]2CC[C@]34C[C@]35CC[C@]3(C)[C@@H]([C@H](C)C/C=C\C(C)(C)O)CC[C@@]3(C)[C@@H]5CC[C@H]4C2(C)C)ccc1O` was tested. Which IC50 did it give?
Its IC50 is 79 µM.

For `C=C(C)[C@@H](O)CC[C@@H](C)[C@H]1CC[C@@]2(C)[C@@H]3CC[C@H]4C(C)(C)[C@@H](OC(=O)/C=C/c5ccc(O)c(OC)c5)CC[C@@]45C[C@@]35CC[C@]12C`, which IC50 is on record?
The IC50 was 283 µM.

For `COc1cc(/C=C/C(=O)O[C@H]2CC[C@]34C[C@]35CC[C@]3(C)[C@@H]([C@H](C)CCC=C(C)C)CC[C@@]3(C)[C@@H]5CC[C@H]4C2(C)C)ccc1O` [GAMMA ORYZANOL], which IC50 is on record?
The IC50 was 80 µM.

For `C=C(C)[C@H](O)CC[C@@H](C)[C@H]1CC[C@@]2(C)[C@@H]3CC[C@H]4C(C)(C)[C@@H](OC(=O)/C=C/c5ccc(O)c(OC)c5)CC[C@@]45C[C@@]35CC[C@]12C`, which IC50 is on record?
Its IC50 is 42 µM.

`C=C(CC[C@@H](C)[C@H]1CC[C@@]2(C)[C@@H]3CC[C@H]4C(C)(C)[C@@H](OC(=O)/C=C/c5ccc(O)c(OC)c5)CC[C@@]45C[C@@]35CC[C@]12C)C(C)C` was tested. Which IC50 did it give?
The IC50 was 27 µM.
